Each block holds one substance with its values, some of them ahead of it.
What was measured:
[1] = target: human TfR (Homo sapiens, UniProt P02786); conditions: SPR, 40 nM analyte, HBS-P+ pH 7.4, 56 RUs captured human TfR
[2] = cited from earlier work
[3] = cited from earlier work; remark: listed apart in the source
[4] = tested on: TfR; conditions: cited from earlier work

Sequence of human TfR (P02786 121-760): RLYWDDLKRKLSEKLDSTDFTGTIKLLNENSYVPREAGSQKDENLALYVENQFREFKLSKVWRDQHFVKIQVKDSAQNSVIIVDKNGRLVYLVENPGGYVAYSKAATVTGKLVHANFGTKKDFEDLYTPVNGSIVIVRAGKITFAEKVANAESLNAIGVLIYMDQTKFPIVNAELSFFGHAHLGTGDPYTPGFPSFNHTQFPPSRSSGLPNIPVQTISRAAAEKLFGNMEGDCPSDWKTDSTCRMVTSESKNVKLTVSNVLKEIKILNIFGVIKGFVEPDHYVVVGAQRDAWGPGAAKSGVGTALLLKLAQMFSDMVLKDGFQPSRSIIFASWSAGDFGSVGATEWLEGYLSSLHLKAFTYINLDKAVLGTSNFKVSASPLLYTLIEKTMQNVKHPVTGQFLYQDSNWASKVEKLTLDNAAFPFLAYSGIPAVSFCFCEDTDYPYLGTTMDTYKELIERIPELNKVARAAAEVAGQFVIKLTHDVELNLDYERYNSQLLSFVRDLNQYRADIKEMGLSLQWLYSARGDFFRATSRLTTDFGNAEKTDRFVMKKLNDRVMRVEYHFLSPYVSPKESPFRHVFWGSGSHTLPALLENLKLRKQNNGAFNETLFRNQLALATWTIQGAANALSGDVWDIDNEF

interaction with captured TfR [1]: demonstrated an interaction
Substance: holo-transferrin

Substance: Angiopep-2
serum degradation half-life [2]: ~ 20 minutes

Substance: transferrin
plasma half-life [3]: 40 h
endocytosis rate t½ [4]: 3.5 min

Source: article PMC9569163 (Journal of molecular biology, 2020)
